Measured values published in the NIST ThermoML archive (doi:10.1021/je0602723).
Numbers after ± are expanded uncertainties.

Test: activity coefficient (dimensionless); of the first substance listed, at infinite dilution; xn = mol fraction of the nth substance listed
Conditions: Liquid, Chromatography, x1 = 0

C1COCCO1 [1,4-dioxane] + CCOS(=O)(=O)[O-].CCn1cc[n+](C)c1
activity coefficient (312.4 K): 2.1 ± 0.14
activity coefficient (333.4 K): 2.08 ± 0.14
activity coefficient (354.2 K): 2.06 ± 0.14

O=C1CCCCCN1 [1-aza-2-cycloheptanone] + CCOS(=O)(=O)[O-].CCn1cc[n+](C)c1
activity coefficient (412.3 K): 5.1 ± 0.35
activity coefficient (417.1 K): 6.1 ± 0.42
activity coefficient (427.1 K): 4.9 ± 0.33

CC(C)CO [2-methyl-1-propanol] + CCOS(=O)(=O)[O-].CCn1cc[n+](C)c1
activity coefficient (322.7 K): 1.65 ± 0.11
activity coefficient (333.4 K): 1.51 ± 0.1
activity coefficient (343.9 K): 1.43 ± 0.09
activity coefficient (357.2 K): 1.24 ± 0.08
activity coefficient (386 K): 1.17 ± 0.07

CCC(C)(C)O [2-methylbutan-2-ol] + CCOS(=O)(=O)[O-].CCn1cc[n+](C)c1
activity coefficient (302 K): 2.51 ± 0.17
activity coefficient (312.4 K): 2.44 ± 0.17
activity coefficient (333.4 K): 2.21 ± 0.15
activity coefficient (343.9 K): 2.14 ± 0.15
activity coefficient (354.4 K): 2.07 ± 0.14

CC(C)(C)O [2-methylpropan-2-ol] + CCOS(=O)(=O)[O-].CCn1cc[n+](C)c1
activity coefficient (302 K): 2.02 ± 0.14
activity coefficient (312.4 K): 1.86 ± 0.13
activity coefficient (322.9 K): 1.74 ± 0.12
activity coefficient (333.4 K): 1.64 ± 0.11
activity coefficient (343.9 K): 1.57 ± 0.1
activity coefficient (354.4 K): 1.49 ± 0.1

CC(C)=O [acetone] + CCOS(=O)(=O)[O-].CCn1cc[n+](C)c1
activity coefficient (323.1 K): 1.64 ± 0.11
activity coefficient (333.6 K): 1.63 ± 0.11
activity coefficient (343.9 K): 1.61 ± 0.11
activity coefficient (365 K): 1.56 ± 0.1
activity coefficient (375.4 K): 1.54 ± 0.1
activity coefficient (386 K): 1.5 ± 0.1

CC#N [acetonitrile] + CCOS(=O)(=O)[O-].CCn1cc[n+](C)c1
activity coefficient (312.2 K): 0.81 ± 0.05
activity coefficient (333.4 K): 0.8 ± 0.05
activity coefficient (343.9 K): 0.78 ± 0.05
activity coefficient (354.3 K): 0.77 ± 0.05

c1ccccc1 [benzene] + CCOS(=O)(=O)[O-].CCn1cc[n+](C)c1
activity coefficient (301.8 K): 2.98 ± 0.2
activity coefficient (312.3 K): 2.94 ± 0.2
activity coefficient (323 K): 2.88 ± 0.2
activity coefficient (333.5 K): 2.79 ± 0.19
activity coefficient (343.9 K): 2.69 ± 0.18
activity coefficient (354.4 K): 2.59 ± 0.18
activity coefficient (364.7 K): 2.5 ± 0.17

CCCCO [butan-1-ol] + CCOS(=O)(=O)[O-].CCn1cc[n+](C)c1
activity coefficient (323 K): 1.68 ± 0.11
activity coefficient (333.4 K): 1.59 ± 0.11
activity coefficient (343.8 K): 1.5 ± 0.1
activity coefficient (354.2 K): 1.42 ± 0.09
activity coefficient (365 K): 1.29 ± 0.08

CCC(C)O (stereo unspecified) [butan-2-ol] + CCOS(=O)(=O)[O-].CCn1cc[n+](C)c1
activity coefficient (312.5 K): 1.93 ± 0.13
activity coefficient (333.4 K): 1.65 ± 0.11
activity coefficient (344 K): 1.56 ± 0.1
activity coefficient (354.5 K): 1.45 ± 0.1
activity coefficient (364.9 K): 1.42 ± 0.09

CCCC=O [butanal] + CCOS(=O)(=O)[O-].CCn1cc[n+](C)c1
activity coefficient (322.8 K): 3.47 ± 0.24
activity coefficient (333.4 K): 3.39 ± 0.23
activity coefficient (344 K): 3.35 ± 0.23
activity coefficient (354.5 K): 3.29 ± 0.22
activity coefficient (364.9 K): 3.23 ± 0.22
activity coefficient (375.3 K): 3.2 ± 0.22
activity coefficient (385.9 K): 3.14 ± 0.21

CCCCc1ccccc1 [butylbenzene] + CCOS(=O)(=O)[O-].CCn1cc[n+](C)c1
activity coefficient (343.7 K): 28.4 ± 1.9
activity coefficient (354.3 K): 26.3 ± 1.8
activity coefficient (364.8 K): 24.7 ± 1.7
activity coefficient (375.1 K): 23.2 ± 1.6
activity coefficient (385.6 K): 21.6 ± 1.5
activity coefficient (396.1 K): 20.1 ± 1.4

ON=C1CCCCC1 [cyclohexanone oxime] + CCOS(=O)(=O)[O-].CCn1cc[n+](C)c1
activity coefficient (417.2 K): 0.57 ± 0.04
activity coefficient (427.5 K): 0.41 ± 0.03

CCCCCCCCCC [decane] + CCOS(=O)(=O)[O-].CCn1cc[n+](C)c1
activity coefficient (301.8 K): 504 ± 35
activity coefficient (312.4 K): 445 ± 31
activity coefficient (322.9 K): 389 ± 27
activity coefficient (333.5 K): 331 ± 23

CCO [ethanol] + CCOS(=O)(=O)[O-].CCn1cc[n+](C)c1
activity coefficient (302.4 K): 0.86 ± 0.06
activity coefficient (322.8 K): 0.79 ± 0.05
activity coefficient (333.5 K): 0.73 ± 0.05
activity coefficient (343.9 K): 0.69 ± 0.05
activity coefficient (354.3 K): 0.67 ± 0.05

CCc1ccccc1 [ethylbenzene] + CCOS(=O)(=O)[O-].CCn1cc[n+](C)c1
activity coefficient (354.3 K): 9.16 ± 0.62
activity coefficient (364.7 K): 8.71 ± 0.59
activity coefficient (375.1 K): 8.21 ± 0.56
activity coefficient (385.7 K): 7.77 ± 0.53

CCCCCCC=O [heptanal] + CCOS(=O)(=O)[O-].CCn1cc[n+](C)c1
activity coefficient (303.3 K): 16.1 ± 1.1
activity coefficient (312.2 K): 15 ± 1
activity coefficient (322.8 K): 14 ± 0.96
activity coefficient (333.3 K): 13.1 ± 0.89
activity coefficient (354.2 K): 11.4 ± 0.78

CCCCCCO [hexan-1-ol] + CCOS(=O)(=O)[O-].CCn1cc[n+](C)c1
activity coefficient (343.8 K): 3.52 ± 0.24
activity coefficient (354.2 K): 3.27 ± 0.22
activity coefficient (364.9 K): 3.06 ± 0.21
activity coefficient (375.2 K): 2.81 ± 0.19

CCCCCC=O [hexanal] + CCOS(=O)(=O)[O-].CCn1cc[n+](C)c1
activity coefficient (312.2 K): 11.4 ± 0.78
activity coefficient (322.9 K): 11.3 ± 0.77
activity coefficient (333.4 K): 11.1 ± 0.76

CO [methanol] + CCOS(=O)(=O)[O-].CCn1cc[n+](C)c1
activity coefficient (312.4 K): 0.41 ± 0.03
activity coefficient (323 K): 0.4 ± 0.03
activity coefficient (333.4 K): 0.39 ± 0.03
activity coefficient (343.8 K): 0.38 ± 0.03
activity coefficient (354.2 K): 0.36 ± 0.03

CCCC(=O)OC [methyl butanoate] + CCOS(=O)(=O)[O-].CCn1cc[n+](C)c1
activity coefficient (344 K): 7.29 ± 0.5
activity coefficient (354.5 K): 6.88 ± 0.47
activity coefficient (364.9 K): 6.58 ± 0.45
activity coefficient (375.4 K): 6.26 ± 0.43
activity coefficient (385.9 K): 5.9 ± 0.4

CCCCCCC(=O)OC [methyl heptanoate] + CCOS(=O)(=O)[O-].CCn1cc[n+](C)c1
activity coefficient (301.8 K): 29.8 ± 2
activity coefficient (312.4 K): 28.4 ± 1.9
activity coefficient (322.9 K): 27.1 ± 1.9
activity coefficient (333.4 K): 25.5 ± 1.8

CCCCCC(=O)OC [methyl hexanoate] + CCOS(=O)(=O)[O-].CCn1cc[n+](C)c1
activity coefficient (301.7 K): 20.1 ± 1.4
activity coefficient (312.4 K): 19.2 ± 1.3
activity coefficient (333.4 K): 17 ± 1.2
activity coefficient (343.9 K): 15.9 ± 1.1

CCCCC(=O)OC [methyl pentanoate] + CCOS(=O)(=O)[O-].CCn1cc[n+](C)c1
activity coefficient (333.6 K): 11.6 ± 0.79
activity coefficient (344.1 K): 10.9 ± 0.74
activity coefficient (354.5 K): 10.2 ± 0.69
activity coefficient (364.9 K): 9.42 ± 0.64
activity coefficient (375.4 K): 8.57 ± 0.58
activity coefficient (385.9 K): 7.75 ± 0.53

CCC(=O)OC [methyl propanoate] + CCOS(=O)(=O)[O-].CCn1cc[n+](C)c1
activity coefficient (322.9 K): 4.73 ± 0.32
activity coefficient (333.5 K): 4.58 ± 0.31
activity coefficient (344 K): 4.38 ± 0.3
activity coefficient (354.5 K): 4.1 ± 0.28
activity coefficient (364.9 K): 3.86 ± 0.26
activity coefficient (375.3 K): 3.61 ± 0.25

CCCCCCCCC [nonane] + CCOS(=O)(=O)[O-].CCn1cc[n+](C)c1
activity coefficient (301.8 K): 357 ± 25
activity coefficient (312.4 K): 304 ± 21
activity coefficient (322.9 K): 249 ± 17
activity coefficient (333.5 K): 200 ± 14

CCCCCCCC=O [octanal] + CCOS(=O)(=O)[O-].CCn1cc[n+](C)c1
activity coefficient (303.3 K): 29.8 ± 2
activity coefficient (312.2 K): 28.3 ± 1.9
activity coefficient (322.8 K): 27.1 ± 1.9
activity coefficient (333.3 K): 26.1 ± 1.8
activity coefficient (343.8 K): 25.5 ± 1.7

CCCCCCCC [octane] + CCOS(=O)(=O)[O-].CCn1cc[n+](C)c1
activity coefficient (301.9 K): 221 ± 15
activity coefficient (312.5 K): 184 ± 13
activity coefficient (322.9 K): 148 ± 10
activity coefficient (333.5 K): 119 ± 8.2

CCCCCO [pentan-1-ol] + CCOS(=O)(=O)[O-].CCn1cc[n+](C)c1
activity coefficient (333.4 K): 2.58 ± 0.18
activity coefficient (343.9 K): 2.36 ± 0.16
activity coefficient (354.4 K): 2.22 ± 0.15
activity coefficient (364.7 K): 2.12 ± 0.14

CCCCC=O [pentanal] + CCOS(=O)(=O)[O-].CCn1cc[n+](C)c1
activity coefficient (333.5 K): 5.19 ± 0.35
activity coefficient (343.9 K): 5.1 ± 0.35
activity coefficient (354.4 K): 4.96 ± 0.34
activity coefficient (364.8 K): 4.82 ± 0.33
activity coefficient (375.2 K): 4.69 ± 0.32

CCCCCc1ccccc1 [pentylbenzene] + CCOS(=O)(=O)[O-].CCn1cc[n+](C)c1
activity coefficient (354.3 K): 43.5 ± 3
activity coefficient (364.8 K): 40.3 ± 2.8
activity coefficient (375.1 K): 38 ± 2.6
activity coefficient (385.7 K): 35 ± 2.4
activity coefficient (396.1 K): 32.4 ± 2.2

CCCO [propan-1-ol] + CCOS(=O)(=O)[O-].CCn1cc[n+](C)c1
activity coefficient (322.8 K): 1.23 ± 0.08
activity coefficient (333.5 K): 1.12 ± 0.07
activity coefficient (343.9 K): 1.05 ± 0.07
activity coefficient (364.9 K): 0.91 ± 0.06
activity coefficient (375.4 K): 0.87 ± 0.06

CC(C)O [propan-2-ol] + CCOS(=O)(=O)[O-].CCn1cc[n+](C)c1
activity coefficient (302.5 K): 1.49 ± 0.1
activity coefficient (312.2 K): 1.41 ± 0.09
activity coefficient (322.8 K): 1.29 ± 0.08
activity coefficient (333.4 K): 1.22 ± 0.08
activity coefficient (343.9 K): 1.15 ± 0.07

CCC=O [propanal] + CCOS(=O)(=O)[O-].CCn1cc[n+](C)c1
activity coefficient (333.5 K): 1.94 ± 0.13
activity coefficient (343.9 K): 1.9 ± 0.13
activity coefficient (354.4 K): 1.84 ± 0.12
activity coefficient (364.8 K): 1.8 ± 0.12
activity coefficient (375.2 K): 1.74 ± 0.12

CCCc1ccccc1 [propylbenzene] + CCOS(=O)(=O)[O-].CCn1cc[n+](C)c1
activity coefficient (343.8 K): 16.8 ± 1.1
activity coefficient (354.3 K): 15.7 ± 1.1
activity coefficient (364.7 K): 14.9 ± 1
activity coefficient (375.1 K): 14 ± 0.95
activity coefficient (385.7 K): 13.2 ± 0.9
